Reference: ChEMBL document CHEMBL1150909, “Magnone A and B, novel anti-PAF tetrahydrofuran lignans from the flower buds of Magnolia fargesii” (J Nat Prod, 1998)

Key:
Oryctolagus cuniculus [1] = species on record: Oryctolagus cuniculus; assay: Displacement of [3H]PAF from rabbit PAF receptor at 100 uM by liquid scintillation counting
Oryctolagus cuniculus [2] = species on record: Oryctolagus cuniculus; assay: Displacement of [3H]PAF from rabbit PAF receptor at 50 uM by liquid scintillation counting
Oryctolagus cuniculus [3] = species on record: Oryctolagus cuniculus; assay: Displacement of [3H]PAF from rabbit PAF receptor at 25 uM by liquid scintillation counting
Oryctolagus cuniculus [4] = species on record: Oryctolagus cuniculus; assay: Displacement of [3H]PAF from rabbit PAF receptor at 12.5 uM by liquid scintillation counting
[5] = Displacement of [3H]PAF from rabbit PAF receptor by liquid scintillation counting; parameters: species or system Oryctolagus cuniculus

Activity (Oryctolagus cuniculus [1]) [%]	Activity (Oryctolagus cuniculus [2]) [%]	Activity (Oryctolagus cuniculus [3]) [%]	Activity (Oryctolagus cuniculus [4]) [%]	IC50 [5] [µM]	Structure (SMILES)
81.7	64.3	42.9	37.1	27	COc1ccc(C(=O)[C@H]2CO[C@H](c3cc(OC)c(OC)c(OC)c3)[C@H]2CO)cc1OC [MAGNONE B]
				19	C[C@@H]1C(=O)O[C@H]2[C@H](O)[C@@]34[C@H]5C[C@@H](C(C)(C)C)[C@]36[C@@H](OC(=O)[C@@H]6O)O[C@@]4(C(=O)O5)[C@@]12O [GINKOLIDE B]
75.2	56.7	41.6	19.4	38	COc1ccc(C(=O)[C@H]2CO[C@H](c3ccc(OC)c(OC)c3)[C@H]2CO)cc1OC [MAGNONE A]
